Reference: ChEMBL document CHEMBL2176943, “Discovery of inhibitors to block interactions of HIV-1 integrase with human LEDGF/p75 via structure-based virtual screening and bioassays” (J Med Chem, 2012)
pEC50, pIC50: −log10 of the molar value. Activity calls are given as the source filed them. No cut-off for these calls is given here.

Assays:
[1] = target: Human immunodeficiency virus type 1 integrase (Human immunodeficiency virus 1, UniProt Q7ZJM1); assay: Inhibition of HIV1 His6-tagged integrase-human GST tagged LEDGF/p75 (373-442 residues) interaction after 30 mins by AlphaScreen assay
[2] = Cytotoxicity against human C8166 cells after 3 days by MTT assay; assay type: cell-based
[3] = target: Human immunodeficiency virus type 1 integrase (Human immunodeficiency virus 1) (UniProt Q7ZJM1); assay: Inhibition of nuclear translocation of HIV1 EGFP-labeled integrase expressed in human 293T cells at 86.73 uM after 24 hrs by microscopic analysis; assay type: cell-based
[4] = test system: Human immunodeficiency virus 1; assay: Antiviral activity against HIV-1 3B infected in C8166 cells assessed as virus-induced cytopathic effect measuring […] formation after 3 days by microscopy; assay type: functional, organism-based; settings: Human immunodeficiency virus 1, 3B, C8166, 72 h
[5] = Therapeutic index, ratio of CC50 for human C8166 cells to EC50 for HIV-1 3B infected in C8166 cells; assay type: cell-based; settings: read-out: Ratio CC50/EC50
[6] = target: Human immunodeficiency virus type 1 integrase (Human immunodeficiency virus 1) (UniProt Q7ZJM1); assay: Inhibition of nuclear translocation of HIV1 EGFP-labeled integrase expressed in human 293T cells at 36.40 uM after 24 hrs by microscopic analysis; assay type: cell-based
[7] = target: Human immunodeficiency virus type 1 integrase (Human immunodeficiency virus 1) (UniProt Q7ZJM1); assay: Inhibition of nuclear translocation of HIV1 EGFP-labeled integrase expressed in human 293T cells at 83.83 uM after 24 hrs by microscopic analysis; assay type: cell-based
[8] = target: Human immunodeficiency virus type 1 integrase (Human immunodeficiency virus 1) (UniProt Q7ZJM1); assay: Inhibition of nuclear translocation of HIV1 EGFP-labeled integrase expressed in human 293T cells at 36 uM after 24 hrs by microscopic analysis; assay type: cell-based

SMILES | pIC50 [1] | also measured
Cc1nc2ccccc2c(-c2cc(F)c3c(c2C)CCCO3)c1[C@H](OC(C)(C)C)C(=O)O | 7.72 | 
O=C(/C=C/c1ccccc1O)c1c(O)cc(O)cc1O | 5.21 | 
O=C(/C=C/c1ccc(O)c(O)c1)O[C@H](Cc1ccc(O)c(O)c1)C(=O)O [ROSMARINIC ACID] | 6.26 | 
O=C(/C=C/c1cccc(O)c1O)c1c(O)cc(O)cc1O | 6.59 | CC50 at 72 h [2]: 111000 nM; inhibition [3]: Active; pEC50 [4]: 4.53; selectivity ratio [5]: 3.76
O=C(NCc1cccc([N+](=O)[O-])c1)c1ccc(OCc2ccccc2)cc1O | 5.42 | 
COc1ccccc1CC(NC(=O)CCCC[C@]12CCC(C)(C)C[C@H]1C1=CC[C@@H]3[C@@]4(C)CC[C@H](O)C(C)(C)[C@@H]4CC[C@@]3(C)[C@]1(C)CC2)C(=O)O (mixture of isomers) | 5.34 | 
O=C(/C=C/c1ccccc1Cl)c1ccc(O)cc1O | 6.49 | CC50 at 72 h [2]: 8830 nM; inhibition [6]: Active; pEC50 [4]: 5.74; selectivity ratio [5]: 4.88
O=C(/C=C/c1ccccc1O)c1cccc(O)c1O | 5.79 | 
CC1(C)CC[C@]2(C(=O)O)CC[C@]3(C)C(=CC[C@@H]4[C@@]5(C)CC[C@H](OC(=O)CC(C)(C)C(=O)O)C(C)(C)[C@@H]5CC[C@]43C)[C@@H]2C1 | 5.26 | 
CC1(C)CC[C@]2(C(=O)O)CC[C@]3(C)C(=CC[C@@H]4[C@@]5(C)CC[C@H](OCc6cccc(C(=O)O)c6)C(C)(C)[C@@H]5CC[C@]43C)[C@@H]2C1 | 5.94 | 
COc1cccc(CC(NC(=O)CCCC[C@]23CCC(C)(C)C[C@H]2C2=CC[C@@H]4[C@@]5(C)CC[C@H](O)C(C)(C)[C@@H]5CC[C@@]4(C)[C@]2(C)CC3)C(=O)O)c1OC (mixture of isomers) | 5.49 | 
CCOc1cc(/C=C2\SC(=O)N(CC(=O)c3ccccc3)C2=O)c(Br)cc1OCc1ccc(C(=O)O)cc1 |  | inhibition [7]: Active
O=C(/C=C/c1ccccc1O)c1ccc(O)c(O)c1 | 5.44 | 
Cc1cn([C@H]2C[C@H](N=[N+]=[N-])[C@@H](CO)O2)c(=O)[nH]c1=O [ZIDOVUDINE] |  | pEC50 [4]: 8.06; selectivity ratio [5]: 473000
CC1(C)CC[C@]2(C(=O)O)CC[C@]3(C)C(=CC[C@@H]4[C@@]5(C)CC[C@H](OCc6ccccc6)C(C)(C)[C@@H]5CC[C@]43C)[C@@H]2C1 | 6.15 | 
O=C(/C=C/c1cccc(O)c1O)c1ccc(O)cc1O [2,3,2',4'-TETRAHYDROXYCHALCONE] | 5.77 | 
O=C(/C=C/c1cc(F)cc(F)c1)c1ccc(O)cc1O | 5.76 | 
CC1(C)CC[C@]2(CCCCC(=O)NC(Cc3ccccc3Cl)C(=O)O)CC[C@]3(C)C(=CC[C@@H]4[C@@]5(C)CC[C@H](O)C(C)(C)[C@@H]5CC[C@]43C)[C@@H]2C1 (mixture of isomers) | 6.19 | CC50 at 72 h [2]: 77500 nM; inhibition [8]: Active; pEC50 [4]: 4.44; selectivity ratio [5]: 2.12
CC1(C)CC[C@]2(C(=O)O)CC[C@]3(C)C(=CC[C@@H]4[C@@]5(C)CC[C@H](OC(=O)C(=O)O)C(C)(C)[C@@H]5CC[C@]43C)[C@@H]2C1 | 5.00 | 
COc1cc(CC(NC(=O)CCCC[C@]23CCC(C)(C)C[C@H]2C2=CC[C@@H]4[C@@]5(C)CC[C@H](O)C(C)(C)[C@@H]5CC[C@@]4(C)[C@]2(C)CC3)C(=O)O)cc(OC)c1 (mixture of isomers) | 5.90 | 
O=C(/C=C/c1cc(O)ccc1O)c1ccc(O)cc1O | 5.42 | 
